Earlier results on 1 compound are cited in US20070161636A1, “Method of analyzing physiological function of target substance” (priority 2003, published 2007).

The structures appear in SMILES notation. Read-outs that look alike come from different tables or passages of the source.

`O=C1OC2(c3ccccc31)c1cc(Br)c(O)c(Br)c1Oc1c2cc(Br)c(O)c1Br` [eosin, tetrabromofluorescein]: the “maximum absorption (max λ)” value by setting is: (in ethanol) 523 nm; (in water) 517 nm.
